Assay results reported in ChEMBL document CHEMBL1158634, “Towards Gram-positive antivirulence drugs: new inhibitors of Streptococcus agalactiae Stk1” (Bioorg Med Chem Lett, 2010).

Assay: Inhibition of Streptococcus agalactiae Stk1 preincubated for 30 mins

| SMILES | IC50 [µM] |
| --- | --- |
| Cn1cnc2c(NCCCO)nc(N3CCOCC3)nc21 | 66 |
| Cn1cnc2c(NCCCO)nc(-c3cccc(NC(=O)NCc4ccccc4)c3)nc21 | 7.5 |
| CCCNC(=O)Nc1cccc(-c2nc(NCCCO)c3ncn(C)c3n2)c1 | 18 |
| CN(CCCO)c1nc(-c2cccc(NC(=O)Nc3cccc(Cl)c3)c2)nc2c1ncn2C | > 300 |
| Cn1cnc2c(NCCCO)nc(NCc3ccccc3)nc21 | 48 |
| OCCCNc1nc(Cl)nc2[nH]cnc12 | > 300 |
| Cn1cnc2c(NCCCO)nc(-c3cccc(NC(=O)Nc4ccsc4)c3)nc21 | 2 |
| Cn1cnc2c(NCCCO)nc(-c3cccc(NS(C)(=O)=O)c3)nc21 | 15 |
| Cn1cnc2c(NCCCO)nc(-c3cccc(NC(=O)Nc4ccccc4Cl)c3)nc21 | 16 |
| Cn1cnc2c(NCCCO)nc(-c3cccc(NC(=O)Nc4c(Cl)cccc4Cl)c3)nc21 | 59 |
| CC(=O)Nc1cccc(-c2nc(NCCCO)c3ncn(C)c3n2)c1 | 18 |
| Cn1cnc2c(NCCCO)nc(-c3cccc(C(=O)O)c3)nc21 | 39 |
| Cn1cnc2c(NCCCO)nc(-c3cccc(NC(N)=O)c3)nc21 | 12 |
| Cn1cnc2c(NCCCO)nc(Cl)nc21 | 66 |
| CCn1cnc2c(NCCCO)nc(Cl)nc21 | 175 |
| CC(C)n1cnc2c(NCCCO)nc(Cl)nc21 | > 300 |
| Cn1cnc2c(NCCCO)nc(-c3ccccc3)nc21 | 12 |
| Cn1cnc2c(NCCCO)nc(-c3cccnc3)nc21 | 34 |
| Cn1cnc2c(NCCCO)nc(N3CCNCC3)nc21 | 110 |
| Cn1cnc2c(NCCCO)nc(-c3cccc(Cl)c3)nc21 | 3 |
| Cn1cnc2c(NCCCO)nc(-c3cccc(-c4ccccc4)c3)nc21 | 4 |
| Cn1cnc2c(NCCCO)nc(-c3cccc(N)c3)nc21 | 13 |
| Cn1cnc2c(NCCCO)nc(Nc3ccccc3)nc21 | 26 |
| Cn1cnc2c(NCCCO)nc(-c3cccc([N+](=O)[O-])c3)nc21 | 3 |
| Cn1cnc2c(NCCCO)nc(-c3cccc(C(F)(F)F)c3)nc21 | 4 |
| Cn1cnc2c(NCCCO)nc(-c3cccc(NS(=O)(=O)Cc4ccccc4)c3)nc21 | 22 |
| Cn1cnc2c(NCCCO)nc(-c3cccc(C(=O)NCCc4cccnc4)c3)nc21 | 38 |
| Cn1cnc2c(NCCCO)nc(-c3cccc(C(=O)N4CCC(c5ccccc5)CC4)c3)nc21 | 174 |
| Cn1cnc2c(NCCCO)nc(-c3cccc(C(=O)NCCCc4ccccc4)c3)nc21 | > 300 |

Now those with a lower IC50, led by results:

| IC50 [µM] | SMILES |
| --- | --- |
| 1.6 | Cn1cnc2c(NCCCO)nc(-c3cccc(NC(=O)Nc4ccc(Cl)cc4)c3)nc21 |
| 1.3 | Cn1cnc2c(N)nc(-c3cccc(NC(=O)Nc4cccc(Cl)c4)c3)nc21 |
| 1 | Cn1cnc2c(NCCCO)nc(-c3cccc(NC(=O)Nc4ccccc4)c3)nc21 |
| 0.96 | Cn1cnc2c(NCCCO)nc(-c3cccc(NC(=O)Nc4cccnc4)c3)nc21 |
| 0.93 | CC(=O)Nc1cccc(NC(=O)Nc2cccc(-c3nc(NCCCO)c4ncn(C)c4n3)c2)c1 |
| 0.73 | Cn1cnc2c(NCCCO)nc(-c3cccc(NC(=O)Nc4cccc(N)c4)c3)nc21 |
| 0.64 | Cn1cnc2c(NCCCO)nc(-c3cccc(NC(=O)Nc4cccc(S(C)(=O)=O)c4)c3)nc21 |
| 0.63 | COc1ccc(NC(=O)Nc2cccc(-c3nc(NCCCO)c4ncn(C)c4n3)c2)cc1 |
| 0.49 | Cn1cnc2c(NCCCO)nc(-c3cccc(NC(=O)Nc4cccc(C#N)c4)c3)nc21 |
| 0.48 | Cn1cnc2c(NCCCN)nc(-c3cccc(NC(=O)Nc4cccc(Cl)c4)c3)nc21 |
| 0.32 | Cn1cnc2c(NCCCO)nc(-c3cccc(NC(=O)Nc4cccc(Cl)c4)c3)nc21 |
| 0.32 | Cn1cnc2c(NCCO)nc(-c3cccc(NC(=O)Nc4cccc(Cl)c4)c3)nc21 |
| 0.3 | CCCNc1nc(-c2cccc(NC(=O)Nc3cccc(Cl)c3)c2)nc2c1ncn2C |
| 0.28 | Cn1cnc2c(NCCCO)nc(-c3cccc(NC(=O)Nc4ccc5c(c4)OCO5)c3)nc21 |
| 0.28 | COCCCNc1nc(-c2cccc(NC(=O)Nc3cccc(Cl)c3)c2)nc2c1ncn2C |
| 0.2 | Cc1cccc(NC(=O)Nc2cccc(-c3nc(NCCCO)c4ncn(C)c4n3)c2)c1 |
| 0.16 | Cn1cnc2c(NCCCO)nc(-c3cccc(NC(=O)Nc4cc(Cl)cc(Cl)c4)c3)nc21 |
